# Experimental data: patent US20210106601A1, “MANGIFERIN AS A PROTECTIVE AGENT AGAINST MITOCHONDRIAL DNA DAMAGE AND SKIN-CARE COMPOSITIONS COMPRISING SAME” (priority 2018, published 2021)
# “And” between values parts separate entries of the source, which are not always exact repeats. Identical values can stand only once.
# How the values were obtained:
# [1] = tested on: HDFn cells; assay: mtDNA damage after UV irradiation (1 kb real-time qPCR assay); type: cell-based, human; settings: UV 2 SED
# Method: 1,000 μg/ml solutions of mangiferin extract were prepared as outlined in Example 1 above. 3 ml of the mangiferin solution was added to a 45 mm diameter quartz glass petri dish. Quartz was chosen as it is known to permit both UVA and UVB rays to pass through. The quartz glass dish was then placed on top of a slightly smaller dish containing the cultured HDFn cells. The cells were then irradiated through the quartz glass petri dish, using either a Cleo Performance (iSOLde, Germany) or Aramid B (Cosmedico, Germany) lamp at 2 standard erythemal doses (SED). […]
# Following irradiation, total DNA was extracted and mtDNA damage analysed using a 1 kb real-time qPCR assay. mtDNA damage is expressed as a Ct value (where a 1 Ct difference is equivalent to a 2-fold difference in damage), and is based on the observation that damaged mtDNA takes longer to be amplified via qPCR. To find the acellular UV transmission of extracts, the dish containing the diluted extract was placed on top of a spectroradiometer and the amount of UV which passes through the dish was measured. All statistical differences were determined using one-way ANOVA with Dunnett's test to compare to a control column (0.05*, P<0.01**, P<0.001***). […]
# [2] = tested on: HDFn cells; assay: Cell viability assay (MTS cell proliferation assay); type: cell-based; settings: unfiltered extract, 50 to 50,000 μg/ml, 24 hours incubation
# Method: Stock solutions of mangiferin were made by dissolving mangiferin extract in water, and diluting to the required concentration. The stock solutions were then added to HDFn cells at a range of concentrations from 50 μg/ml to 50,000 μg/ml, and incubated for 24 hours under standard culture conditions.
# [3] = UV absorbance scan; type: physicochemical; settings: 1,000 μg/ml, quartz cell
# Method: A UV absorbance scan was performed on mangiferin extract at a concentration of 1,000 μg/ml, and the results are shown in FIG. 6. The spectrometer was set up using a quartz cell with a 1.05 ms integration time (the minimum for the spectrometer) and the spectra was based on an average of 100 samples.
# UV absorbance scans were performed on stock solutions of the mangiferin-complexes prepared in example 8 above and the results are shown in FIG. 7. The spectrometer was set up using a quartz cell with a 1.05 ms integration time (the minimum for the spectrometer) and the spectra was based on an average of 100 samples. The mangiferin-only solution required to be diluted to 25% of its original concentration to reach the point at which it no longer saturated the spectrometer, while mangiferin-complex solutions were diluted to 2.5%. However, good absorbance was then observed for all of the samples, with the characteristic peaks at ^˜320 nm and ^˜370 nm clearly visible.
# [4] = Solubility of mangiferin in deionised water; type: physicochemical
# Method: In order to assess the solubility of mangiferin in aqueous solution, 0.18 g of mangiferin was added to 100 mls of deionised water. […] The solution was then Buchner filtered, and the mass of the undissolved material weighed. Solubility was calculated based on the difference between the initial mass of mangiferin and that of the undissolved material.
structure (smiles),measurement,setting,value
"O=c1c2cc(O)c(O)cc2oc2cc(O)c(C3OC(CO)C(O)C(O)C3O)c(O)c12 (stereo not shown) [mangiferin, 1,3,6,7-tetrahydroxy-2-[3,4,5-trihydroxy-6-(hydroxymethyl)oxan-2-yl]xanthen-9-one]",increase in mtDNA damage compared with foil-wrapped (non-irradiated) samples,"[1]; 1,000 μg/ml solution in quartz dish above cells, water control 3.1 Cts",1.6 Cts
same,fold increase in mtDNA damage compared with foil-wrapped samples,"[1]; 1,000 μg/ml, 1 Ct = 2-fold, water control approximately 8-fold",approximately 3 fold
same,concentration up to which cell viability is seen (cell death above),[2],"~5,000 μg/ml"
same,UV absorbance peaks,[3],~320 nm and ~370 nm
same,solubility in water (in words),[4]; even after stirring for 24 hours,very insoluble in water
same,solubility at 4 h,"[4]; thermodynamic from solid, deionised water, 40° C., 500 rpm, stirring time 4 hours",43 µg/mL
same,solubility at 24 h,"[4]; thermodynamic from solid, deionised water, 40° C., 500 rpm, stirring time 24 hours",139 µg/mL
